Tests used:
[1] = Isothermic (25° C.) DVS analysis of salts of the compound of Formula I; format: physicochemical
Excerpt: (FIG. 16D). […] Some hysteresis was observed. […] (FIG. 16C). […] (FIG. 16D).
(FIG. 18A). […] (FIG. 18B). […] Some hysteresis was observed. […] An overlay of FTIR spectra of the L- and D-malic acid salts is shown in FIG. 18F. ^1H NMR spectra of the L- and D-malic salts in DMSO-d^6 are shown in FIG. 18G-18H, respectively.

[2] = Solubility test of the L-malic acid salt at room temperature; format: physicochemical; settings: DMSO, two lots
[3] = Second solubility study of the L-malic acid salt at elevated temperatures (60° C., 70° C.); format: physicochemical; settings: for Solids dissolve at 70° C.?: 70° C. for approximately 3.0 hours
[4] = Stability screening of freebase and selected salts of Formula I, 40° C. and 75% RH, weekly HPLC over 4 weeks
[5] = Dynamic vapor sorption (DVS) of the compound of Formula II; format: physicochemical
Experimental: Approximately 10 mg of sample was placed into a mesh vapor sorption balance pan and loaded into a DVS-1 dynamic vapor sorption balance by Surface Measurement Systems. The sample was subjected to a ramping profile from 40-90% relative humidity (RH) at 10% increments, maintaining the sample at each step until a stable weight had been achieved (99.5% step completion). After completion of the sorption cycle, the sample was dried using the same procedure to 0% RH and then a second sorption cycle back to 40% RH. The weight change during the sorption/desorption cycles were plotted, allowing for the hygroscopic nature of the sample to be determined. XRPD analysis was then carried out on any solid retained.
The material appeared highly crystalline by XRPD (FIG. 62A). […] This event was followed by thermal degradation. […] (FIG. 62B).

[6] = Solvent solubility screen of the compound of Formula II; format: physicochemical; settings: 40 °C, thermodynamic from solid, read-out: Approximate solubility
Experimental: A solvent solubility screen was conducted in 32 solvent systems as follows.
Between each addition, the mixture was checked for dissolution. If no dissolution was apparent, the mixture was heated to around 40° C. and checked again. This procedure was continued until dissolution was observed or until 100 volumes of solvent had been added. Undissolved material from the solubility screen was isolated and analyzed by XRPD.

COc1ccc(CN2CCN(c3ccc(-c4cc(-c5cnn(C)c5)cn5ncc(C#N)c45)cn3)CC2)cn1.O=C(O)C[C@H](O)C(=O)O [L-malic acid salt]
Mass gain by DVS ([1]; 80% relative humidity, 25° C.): approximately 2.8% | Hygroscopicity by DVS (in words) ([1]; isothermic 25° C.): hygroscopic | Deliquescence upon removal from the DVS chamber ([1]; sample remained a free-flowing powder): no observable deliquescence | solubility [2]: 14000 to 15000 µg/mL | Solids dissolve at 60° C.? ([3]; 60° C. for 3.0 hours, solvent 0.1M HCl, Yes): Yes (>13.4 mg/mL) | Solids dissolve at 60° C.? ([3]; 60° C. for 3.0 hours, solvent 2-methyl THF): No | Solids dissolve at 60° C.? ([3]; 60° C. for 3.0 hours, solvent ACN): No | Solids dissolve at 60° C.? ([3]; 60° C. for 3.0 hours, solvent Acetone): No | Solids dissolve at 60° C.? ([3]; 60° C. for 3.0 hours, solvent DCE): No | Solids dissolve at 60° C.? ([3]; 60° C. for 3.0 hours, solvent DMSO, Yes): Yes (>36 mg/mL) | Solids dissolve at 60° C.? ([3]; 60° C. for 3.0 hours, solvent EtOAc): No | Solids dissolve at 60° C.? ([3]; 60° C. for 3.0 hours, solvent EtOH): No | Solids dissolve at 60° C.? ([3]; 60° C. for 3.0 hours, solvent IPA): No | Solids dissolve at 60° C.? ([3]; 60° C. for 3.0 hours, solvent MEK): No | Solids dissolve at 60° C.? ([3]; 60° C. for 3.0 hours, solvent MTBE): No | Solids dissolve at 60° C.? ([3]; 60° C. for 3.0 hours, solvent MeOH): No | Solids dissolve at 60° C.? ([3]; 60° C. for 3.0 hours, solvent Toluene): No | Solids dissolve at 60° C.? ([3]; 60° C. for 3.0 hours, solvent iPAc): No | Solids dissolve at 60° C.? ([3]; 60° C. for 3.0 hours, solvent water): No | Solids dissolve at 70° C.? ([3]; solvent 2-methyl THF): No | Solids dissolve at 70° C.? ([3]; solvent ACN): No | Solids dissolve at 70° C.? ([3]; solvent DCE): No | Solids dissolve at 70° C.? ([3]; solvent DMSO, Yes): Yes (>56 mg/mL) | Solids dissolve at 70° C.? ([3]; solvent EtOAc): No | Solids dissolve at 70° C.? ([3]; solvent EtOH): No | Solids dissolve at 70° C.? ([3]; solvent IPA): No | Solids dissolve at 70° C.? ([3]; solvent MEK): No | Solids dissolve at 70° C.? ([3]; solvent MTBE): No | Solids dissolve at 70° C.? ([3]; solvent Toluene): No | Solids dissolve at 70° C.? ([3]; solvent iPAc): No | Solids dissolve at 70° C.? ([3]; solvent water): No | Solids dissolve at 60° C.? ([3]; solvent THF, cell says 65° C.): ~65 °C almost 12.3 mg/mL | Absolute % change ([4]; 40° C. and 75% RH, T = 0 to 4 weeks): 0.5% | Stability, HPLC analysis, T = 1 week ([4]; stored at 40° C. and 75% RH, 1 week): 97.7% | Stability, HPLC analysis, T = 2 weeks ([4]; stored at 40° C. and 75% RH, 2 weeks): 97.4% | Stability, HPLC analysis, T = 3 weeks ([4]; stored at 40° C. and 75% RH, 3 weeks): 97.4% | Stability, HPLC analysis, T = 4 weeks ([4]; stored at 40° C. and 75% RH, 4 weeks): 97.3% | Stability, HPLC analysis, T = 0 ([4]; stored at 40° C. and 75% RH, T = 0): 97.8%

COc1ccc(CN2C3CC2CN(c2ccc(-c4cc(OCC(C)(C)O)cn5ncc(C#N)c45)cn2)C3)cn1 [compound of Formula II, 6-(2-hydroxy-2-methylpropoxy)-4-(6-(6-((6-methoxypyridin-3-yl)methyl)-3,6-diazabicyclo[3.1.1]heptan-3-yl)pyridin-3-yl)pyrazolo[1,5-a]pyridine-3-carbonitrile]
Hygroscopicity by DVS (in words) [5]: moderately hygroscopic | Weight increase by DVS ([5]; 90% RH): around 3.6% | Change in Form post-DVS ([5]; XRPD after DVS): No change in Form | solubility ([6]; 1-Butanol, organic solvent or mixture): < 5000 µg/mL | solubility ([6]; 1-Propanol, organic solvent or mixture): < 5000 µg/mL | solubility ([6]; organic solvent or mixture, 1,4-Dioxane, (P) partial solubility at 100 volumes): < 5000 µg/mL | solubility ([6]; organic solvent or mixture, 2-Ethoxyethanol, (P) partial solubility at 100 volumes): < 5000 µg/mL | solubility ([6]; organic solvent or mixture, 2-Methyl THF, (P) partial solubility at 100 volumes): < 5000 µg/mL | solubility ([6]; organic solvent or mixture, Anisole, (P) partial solubility at 100 volumes): < 5000 µg/mL | solubility ([6]; organic solvent or mixture, CHCl3, (P) partial solubility at 100 volumes): < 5000 µg/mL | solubility ([6]; organic solvent or mixture, Cyclohexanone, (P) partial solubility at 100 volumes): < 5000 µg/mL | solubility ([6]; organic solvent or mixture, DCM, (P) partial solubility at 100 volumes): < 5000 µg/mL | solubility ([6]; organic solvent or mixture, Nitromethane, (P) partial solubility at 100 volumes): < 5000 µg/mL | solubility ([6]; organic solvent or mixture, THF, (P) partial solubility at 100 volumes): < 5000 µg/mL | solubility ([6]; Acetone, organic solvent or mixture): < 5000 µg/mL | solubility ([6]; Acetone:Water (50%), aqueous with cosolvent or surfactant or cyclodextrin): < 5000 µg/mL | solubility ([6]; Cyclohexane, organic solvent or mixture): < 5000 µg/mL | solubility ([6]; DMSO, organic solvent or mixture): 41000 µg/mL | solubility ([6]; EtOAc, organic solvent or mixture): < 5000 µg/mL | solubility ([6]; Ethanol, organic solvent or mixture): < 5000 µg/mL | solubility ([6]; IPA, organic solvent or mixture): < 5000 µg/mL | solubility ([6]; MEK, organic solvent or mixture): < 5000 µg/mL | solubility ([6]; MIBK, organic solvent or mixture): < 5000 µg/mL | solubility ([6]; MeCN:Water (20%), aqueous with cosolvent or surfactant or cyclodextrin): 5000 µg/mL | solubility ([6]; MeOAc, organic solvent or mixture): < 5000 µg/mL | solubility ([6]; NMP, organic solvent or mixture): 17000 µg/mL | solubility ([6]; THF:Water (1%), organic solvent or mixture): 48000 µg/mL | solubility ([6]; Water, water): < 5000 µg/mL
